4 compounds from BindingDB's records for doi:10.1016/j.bmcl.2018.11.015 (Boehringer Ingelheim Pharmaceuticals, 2019) can be followed below.

Broadly, the IC50 is the midpoint of a concentration-inhibition curve.

This experiment in a line: Antagonist activity at CCR1 in human THP1 cells assessed as inhibition of chemotaxis after 30 mins by Celltiter-glo reagent based luminescence assay. Background: In ATP-based viability assays light output follows the ATP content of the culture.
As for `CC(C)[C@@H](NC(=O)NCC(C)(C)O)C(=O)N1CC[C@](O)(c2ccc(Cl)cc2)C(C)(C)C1`, the concentration for half-maximal inhibition (IC50) was determined as 1.5 nM.
Under `Cc1c(C(=O)NCc2cccc(C(F)(F)F)c2)cnn1-c1ccc(Cl)c(Cl)c1` stands 1200 nM; under `CC(C)(O)c1ccc2c(c1)/C(=C\CCN1CC[C@](O)(c3ccc(Cl)cc3)C(C)(C)C1)c1cccnc1CO2`, 1.8 nM.
The value for `COc1cc(N2CCN(C(=O)Cn3nc(-c4ncc[nH]4)c4cccnc43)CC2)ccc1Cl` was 4 nM.
